In assay [1] the target is T1, Muscarine M4 (GPCR-A-MA-ACH M4) (Homo sapiens, UniProt P08173).
T1 construct: expressed in transfected cells; host or cells: CHO cells
T1 sequence (P08173 1-479): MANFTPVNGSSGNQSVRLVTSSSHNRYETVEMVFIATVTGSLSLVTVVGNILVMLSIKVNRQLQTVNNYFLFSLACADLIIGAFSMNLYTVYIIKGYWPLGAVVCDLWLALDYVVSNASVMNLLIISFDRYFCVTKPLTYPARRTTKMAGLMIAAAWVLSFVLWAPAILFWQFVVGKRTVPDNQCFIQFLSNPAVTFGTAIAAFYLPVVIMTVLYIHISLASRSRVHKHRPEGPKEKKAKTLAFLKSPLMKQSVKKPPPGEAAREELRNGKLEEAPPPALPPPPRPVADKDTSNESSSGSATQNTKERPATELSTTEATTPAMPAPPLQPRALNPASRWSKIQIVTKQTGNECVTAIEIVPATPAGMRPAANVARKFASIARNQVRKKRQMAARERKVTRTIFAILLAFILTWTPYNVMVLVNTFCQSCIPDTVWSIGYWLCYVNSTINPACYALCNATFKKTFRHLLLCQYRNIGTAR
Nature of the assay: Muscarine M4 receptor binding, 3H-Oxotremorine. To be noted: human M4, CHO cells; receptor binding, ligand 6 nM, 30 min/25° C.; read-out: RB Musc. M4 3H-Oxotremorine pKi (converted). In short, it runs like this:
(§1)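 Human M1 ([3H]-pirenzepine), M3, and M4 ([3H]-4DAMP or [3H]-oxotremorine) receptor preparations incubated with radioligand and compound, first at 10 μM, then at 10-fold lower concentrations if inhibition exceeded 40%. Bound ligand separated by glass-fibre filtration and counted by scintillation. IC50 from Hill fit, converted to Ki via Cheng-Prusoff, reported as pKi.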

Assay [2] addresses T1, Muscarine M4 (GPCR-A-MA-ACH M4). Kind of assay: Muscarine M4 cell-based functional assay (CHO cells, Ca2+ - Aequorin luminescence). Particulars: human M4, CHO cells; agonist mode, reference agonist oxotremorine; read-out: Cell funct. Musc. M4 Agonism pEC50 (converted). The procedure, abridged: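 CHO cells expressing human M4 were exposed to compound, with Ca2+ response read by aequorin luminescence. Compounds were first tested at 1 μM, then at 10-fold lower concentrations if active; stimulation or inhibition was relative to the reference agonist. EC50/IC50 came from Hill-equation fits.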

Assay [3] addresses T2, Muscarine M2 (GPCR-A-MA-ACH M2) (Homo sapiens, UniProt P08172).
T2 construct: expressed in transfected cells; host or cells: CHO cells
T2 sequence (P08172 1-466): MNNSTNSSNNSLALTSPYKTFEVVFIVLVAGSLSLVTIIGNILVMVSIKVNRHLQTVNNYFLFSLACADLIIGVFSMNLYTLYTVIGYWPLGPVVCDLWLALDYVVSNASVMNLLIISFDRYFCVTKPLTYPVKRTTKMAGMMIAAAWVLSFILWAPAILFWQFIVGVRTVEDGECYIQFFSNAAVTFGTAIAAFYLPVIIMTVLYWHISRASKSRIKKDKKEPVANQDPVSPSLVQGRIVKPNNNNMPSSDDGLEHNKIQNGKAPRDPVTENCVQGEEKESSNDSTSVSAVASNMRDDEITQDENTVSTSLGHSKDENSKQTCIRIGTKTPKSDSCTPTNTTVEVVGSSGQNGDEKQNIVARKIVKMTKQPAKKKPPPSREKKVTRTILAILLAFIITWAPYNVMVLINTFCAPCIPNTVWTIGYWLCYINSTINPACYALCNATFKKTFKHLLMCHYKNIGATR
Nature of the assay: Muscarine M2 receptor binding. To be noted: human M2, CHO cells; receptor binding.

Assay [4] addresses T1, Muscarine M4 (GPCR-A-MA-ACH M4). Nature of the assay: Muscarine M4 receptor binding, 3H-4DAMP. To be noted: human M4, CHO cells, ligand 0.2 nM, 60 min/22° C., read-out: RB Musc. M4 3H-DAMP pKi (converted). The procedure, abridged: as §1

For the compound `CCOCCSc1c[nH]nc1C1=CCCN(C)C1` [Compound 22O, 3-[4-(2-Ethoxy-ethylsulfanyl)-1H-pyrazol-3-yl]-1,2,5,6-tetrahydro-1-methylpyridine], the values for the Ki in assay [1], in assay [3] and in assay [4] were 0.398 µM, 10 µM and 0.794 µM, respectively. Besides, the EC50 in assay [2] is 0.631 µM.

As for `CN1CCC=C(c2n[nH]cc2SCCC=C(F)F)C1` [Compound 22J, 3-[4-(4,4-Difluoro-but-3enylsulfanyl)-1H-pyrazol-3-yl]-1,2,5,6-tetrahydro-1-methylpyridine], the figures for the Ki in assay [1], in assay [3] and in assay [4] were 0.0631 µM, 3.16 µM and 0.251 µM, respectively. In addition, in assay [2], the EC50 was 0.251 µM.

For `CCCCCOc1c[nH]nc1C1=CCCN(C)C1` [Compound 33G, 3-(4-Pentyloxy-1H-pyrazol-3-yl)-1,2,5,6-tetrahydro-1-methylpyridine], the Ki in assay [1] is 0.126 µM; in assay [3] it was 3.98 µM; in assay [4], 0.2 µM. Moreover, the EC50 in assay [2] was 0.631 µM.

Consider `C=CCCCOc1c[nH]nc1C1=CCCN(C)C1` [Compound 33F, 3-(4-Pent-4-enyloxy-1H-pyrazol-3-yl)-1,2,5,6-tetrahydro-1-methylpyridine], for which the Ki was 0.316 µM in assay [1], 5.01 µM in assay [3] and 0.501 µM in assay [4]. Further, the EC50 in assay [2] is 0.794 µM.

Take `C=CCCCSc1c[nH]nc1C1=CCCN(C)C1` [Compound 22L]: the Ki is 0.0631 µM in assay [1], 2 µM in assay [3] and 0.1 µM in assay [4]. In addition, in assay [2], the EC50 is 0.0631 µM.

These data come from US8735388B2, “Heterocyclic compounds with affinity to muscarinic receptors” (Abbvie B. V. A., priority 2007, dated 2014).
